The source of these data is paper PMC5478473 (Nature chemical biology, 2017).

In this assay the target is T1, Tet(50) (unidentified prokaryotic organism, UniProt A0A059WYP6).
T1 sequence (A0A059WYP6 1-388): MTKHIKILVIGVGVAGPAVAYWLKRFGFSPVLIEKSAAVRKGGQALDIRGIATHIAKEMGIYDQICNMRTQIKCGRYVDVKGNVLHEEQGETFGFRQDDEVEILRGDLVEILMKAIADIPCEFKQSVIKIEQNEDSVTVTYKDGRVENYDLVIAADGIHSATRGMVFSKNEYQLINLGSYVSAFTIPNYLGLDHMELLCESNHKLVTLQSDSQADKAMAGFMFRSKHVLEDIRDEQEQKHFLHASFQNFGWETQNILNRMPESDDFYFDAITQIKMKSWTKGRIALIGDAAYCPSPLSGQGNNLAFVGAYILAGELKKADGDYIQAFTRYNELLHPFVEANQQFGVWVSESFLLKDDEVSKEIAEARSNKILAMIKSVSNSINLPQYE

Broadly, the Km is the concentration of substrate that gives half-maximal velocity. Regarding `CN(C)[C@@H]1C(O)=C(C(N)=O)C(=O)[C@@]2(O)C(O)=C3C(=O)c4c(O)ccc(Cl)c4[C@@](C)(O)[C@H]3C[C@@H]12` [chlortetracycline], the Km was found to be 6.3 µM.
